In US7241785B2, “Five-membered heterocyclic alkanoic acid derivative” (Takeda Pharmaceutical Company Limited, priority 2001, dated 2007):

Columns and labels:
KKA^y mice [1] = assay: Hypoglycemic and hypolipidemic (hypotriglyceridemic) actions in mice; format: in vivo; settings: Mus musculus, po, 96 h, 0.01% in powdery diet, four days
Protocol: Hypoglycemic and Hypolipidemic (Hypotriglyceridemic) Actions in Mice
Test compounds were mixed in a powdery diet (CE-2, Japan Clea) at the concentration of 0.01%, and freely given to KKA^y mice (11 to 12 weeks old, 5 mice per group), a model of type 2 diabetes mellitus, for four days. During this period, water was given freely. Blood was sampled from orbital venous plexus, and glucose and triglyceride levels in plasma separated from the blood were determined enzymatically using L type Wako Glu2 (Wako Pure Chemical Industries, Ltd.) or L type Wako TG.H (Wako Pure Chemical Industries, Ltd.), respectively.
In the Table, “hypoglycemic action (%)” represents a percent reduction (%) of the blood glucose level in the treatment group when the blood glucose level in the non-treatment group is taken as 100%. In addition, “hypolipidemic action (%)” represents a percent reduction (%) of the blood triglyceride level in the treatment group when the blood triglyceride level in the non-treatment group is taken as 100%.

KKA^y mice [2] = assay: Total cholesterol lowering action and plasma anti-arteriosclerosis index-enhancing action in mice; format: in vivo; settings: Mus musculus, po, 96 h, 0.01% in powdery diet, four days
Protocol: Total Cholesterol Lowering Action and Plasma Anti-Arteriosclerosis Index-Enhancing Action in Mice
Test compounds were mixed in a powdery diet (CE-2, Japan Clea concentration of 0.01%, and freely given to KKA^y mice (11 to 12 weeks old, 5 mice per group), a model of type 2 diabetes mellitus, for four days. During this period, water was given freely. Blood was sampled from orbital venous plexus, and components in plasma separated from the blood were determined. Total cholesterol levels were determined using L type Wako Cholesterol (Wako Pure Chemical Industries, Ltd.). Precipitation reagent for HDL cholesterol was added to a part of the plasma to precipitate non-HDL lipoprotein, and cholesterol (HDL cholesterol) in the resulting supernatant was determined. The plasma anti-arteriosclerosis index [(HDL cholesterol/total cholesterol)×100] was calculated using these cholesterol levels.
In the Table, “total cholesterol lowering action (%)” represents a percent reduction (%) of the total cholesterol level in the treatment group when the total cholesterol level in the non-treatment group is taken as 100%. In addition, “plasma anti-arteriosclerosis index-enhancing action (%)” represents a percent increase (%) of the plasma anti-arteriosclerosis index in the treatment group when the plasma anti-arteriosclerosis index in the non-treatment group is taken as 100%.

PPARδ-RXRα heterodimer [3] = biological target: T1, PPARδ-RXRα heterodimer (Homo sapiens, UniProt Q03181); assay: PPARδ-RXRα heterodimer ligand activity (luciferase reporter, PPARδ:RXRα:4ERPP/CHO-K1 cells); format: cell-based; set-up: expressed in transfected cells; settings: concentration for 50% of maximum fold induction of luciferase, 48 hrs
T1 sequence (Q03181 1-441): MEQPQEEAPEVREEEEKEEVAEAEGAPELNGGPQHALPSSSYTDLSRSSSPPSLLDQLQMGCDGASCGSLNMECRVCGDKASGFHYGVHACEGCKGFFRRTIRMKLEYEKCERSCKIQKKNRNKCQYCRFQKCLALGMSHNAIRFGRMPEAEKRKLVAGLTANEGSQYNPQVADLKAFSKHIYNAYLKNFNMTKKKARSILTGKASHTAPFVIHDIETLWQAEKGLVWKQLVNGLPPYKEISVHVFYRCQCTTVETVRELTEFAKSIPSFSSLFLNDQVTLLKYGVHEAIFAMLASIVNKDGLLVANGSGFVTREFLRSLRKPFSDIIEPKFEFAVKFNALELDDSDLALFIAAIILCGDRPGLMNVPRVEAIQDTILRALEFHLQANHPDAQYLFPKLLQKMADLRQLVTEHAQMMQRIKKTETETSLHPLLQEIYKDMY
T1 sequence (P19793 1-462 partner): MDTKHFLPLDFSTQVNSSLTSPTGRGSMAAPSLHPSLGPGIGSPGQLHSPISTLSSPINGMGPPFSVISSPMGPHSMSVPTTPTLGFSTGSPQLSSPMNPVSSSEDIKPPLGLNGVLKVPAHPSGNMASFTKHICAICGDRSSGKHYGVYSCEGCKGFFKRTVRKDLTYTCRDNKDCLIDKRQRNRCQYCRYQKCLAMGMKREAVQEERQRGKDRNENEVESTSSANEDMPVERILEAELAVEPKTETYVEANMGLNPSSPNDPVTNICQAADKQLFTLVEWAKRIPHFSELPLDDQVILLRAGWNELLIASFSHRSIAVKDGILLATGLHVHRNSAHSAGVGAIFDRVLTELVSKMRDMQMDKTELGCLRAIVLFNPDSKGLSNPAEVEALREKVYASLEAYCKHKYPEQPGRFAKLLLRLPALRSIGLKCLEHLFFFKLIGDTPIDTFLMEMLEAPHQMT
Protocol: (§1) PPARδ-RXRα Heterodimer Ligand Activity
PPARδ:RXRα:4ERPP/CHO-K1 cells obtained in Reference Example 5a were cultured in HAM F12 medium (produced by NISSUI SEIYAKU) containing 10% fetal bovine serum (produced by Life Technologies, Inc., USA) and then seeded in a 96-well white plate (produced by Corning Costar Corporation, USA) at the density of 2×10^4 cells/well, and cultured in a CO2 gas incubator at 37° C. overnight.
After washing the 96 well white plate with PBS (Phosphate-buffered saline), 90 μl of HAM F12 medium containing 0.1% fatty acid-free bovine serum albumin (BSA) and 10 μl of test compound were added, and the cells were cultured in a CO2 gas incubator at 37° C. for 48 hrs. After removing the medium, 40 μl of PicaGene 7.5 (produced by Wako Pure Chemical Industries, Ltd.) was added. After stirring, the luciferase activity was determined using Lumistar (produced by BMG Labtechnologies GmbH, Germany).
The fold induction was calculated from the luciferase activity of each test compound when the luciferase activity in the non-treatment group is taken as 1. The values of the test compound concentration and the fold induction were analyzed using PRISM 2.01 (produced by GraphPad Software Inc. USA) to calculate the EC50 values, the effective concentration of a test compound for 50% of the maximum fold induction. […]

PPARδ-RXRα heterodimer [4] = biological target: T1, PPARδ-RXRα heterodimer; assay: PPARδ-RXRα heterodimer ligand activity (luciferase reporter, transfected COS-1 cells); format: cell-based; set-up: expressed in transfected cells; host or cells: COS-1 (transient, lipofectamine); settings: concentration for 50% of maximum fold induction of luciferase, 48 hrs
Protocol: as §1
The COS-1 cells obtained in Reference Example 9a were recovered, suspended in DMEM medium containing 0.1% fatty acid-free bovine serum albumin (BSA)(manufactured by Wako Pure Chemical Industries, Ltd.) (Nikken Biomedical Laboratory) and seeded in each well of a 96-well white plate (manufactured by Corning Costar Corporation, USA) at the density of 2×10^4 cells/well ([…]). Then, the test Compound ([…]) was added and the cells were cultured at 37° C., 5% CO2 for 48 hrs. The medium was removed from the 96-well white plate and PicaGine LT7.5 ([…], Wako Pure Chemical Industries) was added. After stirring, luciferase activity was measured using 1420 ARVO Multilabel Counter (Wallac)).
The fold induction was calculated from the luciferase activity of the test compound when the luciferase activity of the non-treatment group is taken as 1. The values of the test compound concentration and the fold induction were analyzed using PRISM 2.01 (produced by GraphPad Software Inc. USA) to calculate the EC50 values, the effective concentration of a test compound for 50% of the maximum fold induction.
Introduction of Plasmid and Reporter Plasmid for Expression of Human PPARδ, RXRα into COS-1 Cell […]

Cc1oc(-c2ccccc2)nc1COc1ccc(Sc2nc(-c3ccccc3)c(CCC(=O)O)s2)cc1 [Example 12, 3-[2-[4-(5-methyl-2-phenyl-4-oxazolylmethoxy)phenylthio]-4-phenyl-5-thiazolyl]propionic acid]
inhibition in vivo at 0.01 % in diet (KKA^y mice [1]; percent reduction of blood glucose level vs non-treatment group (100%), read-out: Hypoglycemic action (%)): 52%
inhibition in vivo at 0.01 % in diet (KKA^y mice [1]; percent reduction of blood triglyceride level vs non-treatment group (100%), read-out: Hypolipidemic action (%)): 56%
change in vivo at 0.01 % in diet (KKA^y mice [2]; percent increase of index [(HDL cholesterol/total cholesterol)×100] vs non-treatment group (100%)): 15%
inhibition in vivo at 0.01 % in diet (KKA^y mice [2]; percent reduction of total cholesterol level vs non-treatment group (100%)): 22%
melting point: 121 to 122 °C
EC50 (PPARδ-RXRα heterodimer [3]): 670 nM

Cc1nc(SCc2ccc(OCc3nc(-c4ccccc4)oc3C)cc2)sc1CC(=O)O [Example 58, [4-methyl-2-[4-(5-methyl-2-phenyl-4-oxazolylmethoxy)benzylthio]thiazol-5-yl]acetic acid]
EC50 (PPARδ-RXRα heterodimer [4]): 680 nM

Cc1nc(SCc2cccc(OCc3nc(-c4ccccc4)oc3C)c2)sc1CC(=O)O [Example 60, [4-methyl-2-[3-(5-methyl-2-phenyl-4-oxazolylmethoxy)benzylthio]thiazol-5-yl]acetic acid]
EC50 (PPARδ-RXRα heterodimer [4]): 260 nM
